Test [1] deals with T1, AKR1C3 (Homo sapiens, UniProt P42330).
T1 sequence (P42330 1-323): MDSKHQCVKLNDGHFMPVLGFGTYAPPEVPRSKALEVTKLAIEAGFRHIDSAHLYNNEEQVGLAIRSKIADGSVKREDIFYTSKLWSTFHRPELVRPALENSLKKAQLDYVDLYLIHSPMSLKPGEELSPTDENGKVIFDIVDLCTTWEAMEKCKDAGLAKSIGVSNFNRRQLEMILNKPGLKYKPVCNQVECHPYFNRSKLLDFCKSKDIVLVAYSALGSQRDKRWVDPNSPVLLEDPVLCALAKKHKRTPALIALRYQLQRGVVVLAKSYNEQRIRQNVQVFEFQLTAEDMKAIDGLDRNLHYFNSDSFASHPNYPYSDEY
Conditions: for IC50 Ratio 1C2:1C3: selectivity, ratio of IC50 values AKR1C2 to AKR1C3.

Test [2] addresses T2, AKR1C2 (Homo sapiens, UniProt P52895).
T2 sequence (P52895 1-323): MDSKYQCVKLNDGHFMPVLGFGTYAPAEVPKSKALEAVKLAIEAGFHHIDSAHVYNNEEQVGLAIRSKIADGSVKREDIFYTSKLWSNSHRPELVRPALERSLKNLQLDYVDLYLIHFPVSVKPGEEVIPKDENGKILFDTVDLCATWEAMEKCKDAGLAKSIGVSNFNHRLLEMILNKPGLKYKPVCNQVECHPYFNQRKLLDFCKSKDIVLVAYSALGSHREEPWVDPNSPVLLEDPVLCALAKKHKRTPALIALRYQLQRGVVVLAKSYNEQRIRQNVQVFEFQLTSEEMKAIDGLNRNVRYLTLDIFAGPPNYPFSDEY

The mark [3] stands for this setting: read-out: 1C3 IC50, recombinant AKR1C3, S-tetralol 165 μM (= Km), NADP+.
Setting [4] is: read-out: 1C2 IC50, recombinant AKR1C2, S-tetralol 15 μM (= Km), NADP+.

The results in this text go back to paper PMC4414711 (Chemico-biological interactions, 2014).

Read-outs that look alike come from different tables or passages of the source.

The term IC50 denotes the concentration at which inhibition is half-maximal. Turning to `O=C(O)/C=C/c1ccc(OC(=O)c2ccncc2)cc1` [Compound 12, (2E)-3-[4-(pyridine-4-carbonyloxy)phenyl]prop-2-enoic acid], in test [1], the IC50 came to 68 µM and the “IC50 Ratio 1C2:1C3” value came out at 1. This compound also gave an IC50 in test [2] of 88 µM.
For the compound `CC(C)=CCc1cc(/C=C/C(=O)OC(C)(C)C)ccc1OC(=O)CCc1ccccc1` [Compound 7, tert-butyl(2E)-3-[3-(3-methylbut-2-en-1-yl)-4-[(3-phenylpropanoyl)oxy]phenyl]prop-2-enoate], in test [1], the IC50 stood at 607 µM and the “IC50 Ratio 1C2:1C3” value is listed as 0.3. Besides, in test [2], the IC50 worked out at 153 µM.
In the case of `O=C(O)/C=C/c1ccc(OC(=O)CCc2ccccc2)cc1` [Compound 8, (2E)-3-prop-2-enoic acid], the results for the concentration for half-maximal inhibition (IC50) in test [1] (setting [3]) and in test [2] (setting [4]) were 4.7 µM and 88 µM, respectively. For the same compound, the “IC50 Ratio 1C2:1C3” value in test [1] is 19.
For `O=C(O)/C=C/c1cccc(O)c1` [Compound 15, m-coumaric acid], the IC50 in test [1] (setting [3]) was 86 µM; in test [2] (setting [4]) it was 389 µM. Moreover, in test [1], the “IC50 Ratio 1C2:1C3” value came to 5.
Regarding `O=C(O)/C=C/c1cccc(OC(=O)CCc2ccccc2)c1` [Compound 9, (E)-3-(3-((3-phenylpropanoyl)oxy)phenyl)acrylic acid], in test [1], the IC50 came out at 0.96 µM and the “IC50 Ratio 1C2:1C3” value is listed as 28. The “increase of the inhibitory selectivity” value in test [1] (in comparison to compound 8) was found to be 1.5 fold. In test [2], this compound had an IC50 of 27 µM.
“(2E)-3-(3,3-dimethyl-3,4-dihydro-2H-1-benzopyran-6-yl)prop-2-enoate [Compound 5]”: the IC50 worked out at 21 µM in test [1] (setting [3]) and 14 µM in test [2] (setting [4]). For the same compound, the “further decrease of inhibitory potency for AKR1C3” value in test [1] (relative to compound 4) came out at 2 fold. The “IC50 Ratio 1C2:1C3” value in test [1] is reported as 1. Further, the “further decrease of inhibitory potency for AKR1C2” value in test [2] (relative to compound 4) is on record as 2 fold.
Consider `O=C(O)/C=C/c1ccc(O)cc1` [Compound 14, p-coumaric acid], for which, in test [1], 199 µM corresponded to half-maximal inhibition (IC50) and the “IC50 Ratio 1C2:1C3” value came to 7. 1300 µM corresponded to half-maximal inhibition in test [2] (IC50).
Turning to `CC(C)(C)OC(=O)C=Cc1ccc(OC(=O)CCc2ccccc2)cc1` (mixture of isomers) [Compound 13, (Z/E)-tert-butyl 3-(4-(3-phenylpropanoyloxy)phenyl)acrylate], the IC50 in test [1] (setting [3]) was 632 µM; in test [2] (setting [4]) it was 27 µM. In addition, the “IC50 Ratio 1C2:1C3” value in test [1] is 0.04.
On to `O=C(O)/C=C/c1ccc(OC(=O)c2ccccc2)cc1` [Compound 11, (2E)-3-[4-(benzoyloxy)phenyl]prop-2-enoic acid], for which, in test [1], the IC50 came out at 6.3 µM and the “IC50 Ratio 1C2:1C3” value stood at 20. Further, in test [2], the IC50 stood at 127 µM.
As to `COc1cc(/C=C/C(=O)O)ccc1O` [Compound 16, ferulic acid], the IC50 was determined as 21 µM in test [1] (setting [3]) and 421 µM in test [2] (setting [4]). Further, in test [1], the “IC50 Ratio 1C2:1C3” value is 20.
Consider `O=C(O)C=Cc1ccc(OC(=O)CCc2ccccc2)cc1` (mixture of isomers) [Compound 10, (Z/E)-3-(4-((3-phenylpropanoyl)oxy)phenyl)acrylic acid], for which the “decrease of the inhibitory selectivity” value in test [1] (in comparison to compound 8) worked out at 1.7 fold. For the same compound, the values for the IC50 in test [1] (setting [3]) and in test [2] (setting [4]) were 2.3 µM and 25 µM, respectively. For the same compound, the “IC50 Ratio 1C2:1C3” value in test [1] is reported as 11.
